The NIST ThermoML archive (doi:10.1016/j.jct.2019.03.008)

Assays:
[1] = Boiling temperature at pressure P; conditions: Liquid, DSC
[2] = Crystal; DTA

Oc1ccccc1O [1,2-benzenediol]
[1]
Conditions	Boiling temperature at pressure P [°C]
2.95 kPa	139.1
3.93 kPa	145.5
4.93 kPa	150.7

Oc1cccc(O)c1 [1,3-benzenediol]
[1]
Conditions	Boiling temperature at pressure P [°C]
2.95 kPa	171.6
3.93 kPa	178.2
4.93 kPa	183.7

CCCCCCc1ccc(O)cc1O [1,3-dihydroxy-4-hexylbenzene]
Conditions	Normal melting temperature [°C]
[2]	67.0

[1]
Conditions	Boiling temperature at pressure P [°C]
1.95 kPa	201.0
2.95 kPa	211.0
3.87 kPa	218.7
5.42 kPa	227.1
7.89 kPa	238
9.9 kPa	244.6
19.83 kPa	267
29.78 kPa	281.4
49.68 kPa	301.2
69.58 kPa	315.0
79.52 kPa	321.4
100.93 kPa	332.4
198.33 kPa	364.4
223.29 kPa	371.5
250.21 kPa	378

CCCc1c(O)cccc1O [2-propylresorcinol]
Conditions	Normal melting temperature [°C]
[2]	104.8

[1]
Conditions	Boiling temperature at pressure P [°C]
9.92 kPa	197.5
19.83 kPa	218.2
29.79 kPa	231.6
49.69 kPa	250.2
69.61 kPa	263.2
98.91 kPa	278.0
198.31 kPa	309.6
299.37 kPa	332.2
400.46 kPa	345.8

CCc1ccc(O)cc1O [4-ethylresorcinol]
Conditions	Normal melting temperature [°C]
[2]	97.2

[1]
Conditions	Boiling temperature at pressure P [°C]
9.92 kPa	207.4
19.87 kPa	228.2
29.79 kPa	241.4
49.73 kPa	259.6
69.64 kPa	272.6
98.43 kPa	287.0
198.31 kPa	318.6
299.37 kPa	339.8
400.09 kPa	356.2
